Several values for one entry are separate records, joined by “and”; a condition that tells them apart may be missing. Identical values can stand only once.
Tests used:
[1] = tested on: Peritoneal derived inflammatory cells; experiment: In vitro immunomodulatory effect of tested PEG compounds (CD86 on CD19+ cells, LPS); assay type: cell-based, mouse; settings: potency in molarity; toxicity by visual inspection and DAPI staining (FIG. 11D)
Procedure: Peritoneal derived inflammatory cells were collected on day for post intraperitoneal injection of Thyoglicollate. Cells were cultured for 24 h in baseline condition (control), in the presence of LPS 100 ng/ml (LPS) or in the presence of LPS 100 ng/ml and various concentrations of different forms of Pegylated Pirfenidone (named C2 and C3 in FIG. 11A and C4 to C6 in FIG. 11B)). After the 24 h in culture cells were collected and analyzed via flow cytometry to assess the expression of CD86 on CD19+ cells (B lymphocytes). […] FIG. 11C reports the molecular weights of the tested forms of PEGylated Pirfenidone and the molecular weight (MW) ration between the tested compound and Pirfenidone).

[2] = Plasma pharmacokinetics after IV or PO administration; assay type: in vivo; settings: SD Rat, 96 mg/kg
[3] = as above; assay type: in vivo, SD Rat
Procedure: Pirfenidone and Pegyonde-6 were administered at equimolar concentrations to rats IV or per os (PO) and serum concentrations measured at different time points to measure pharmacokinetic parameters. The drugs were solubilized in 5% Alcohol+20% PEG 300 in saline.

[4] = SD Rat, IV 96 mg/kg, individual rats 4-6, 96 mg/kg
[5] = SD Rat, PO 96 mg/kg, individual rats 10-12, 96 mg/kg

Plasma concentrations of PEG-Pirfenidone ([2]; PO 96 mg/kg, 2 h, individual rats 10-12): 219 ng/mL and 885 ng/mL and 217 ng/mL | AUC0-t, Mean ([3]; SD Rat, IV 96 mg/kg): 34197 ng·h/mL | AUC0-∞, Mean ([3]; SD Rat, IV 96 mg/kg): 34229 ng·h/mL | AUMC0-t, Mean ([3]; SD Rat, IV 96 mg/kg): 18176 h*h*ng/mL | AUMC0—∞, Mean ([3]; SD Rat, IV 96 mg/kg): 18540 h*h*ng/mL | CL(/F), Mean ([3]; SD Rat, IV 96 mg/kg): 48.72 mL/min/kg | Cmax, Mean ([3]; SD Rat, IV 96 mg/kg): 65733 ng/mL | MRTINF, Mean ([3]; SD Rat, IV 96 mg/kg): 33.8 min | T1/2, Mean ([3]; SD Rat, IV 96 mg/kg): 79.8 min | Tmax, Mean ([3]; SD Rat, IV 96 mg/kg): 4.98 min | Vss (/F), Mean ([3]; SD Rat, IV 96 mg/kg): 1.7 L/kg | Plasma concentrations of PEG-Pirfenidone, Mean ([3]; SD Rat, IV 96 mg/kg, 0.083 h): 65733 ng/mL | Plasma concentrations of PEG-Pirfenidone, Mean ([3]; SD Rat, IV 96 mg/kg, 0.25 h): 41336 ng/mL | Plasma concentrations of PEG-Pirfenidone, Mean ([3]; SD Rat, IV 96 mg/kg, 0.5 h): 17149 ng/mL | Plasma concentrations of PEG-Pirfenidone, Mean ([3]; SD Rat, IV 96 mg/kg, 1 h): 6090 ng/mL | Plasma concentrations of PEG-Pirfenidone ([3]; SD Rat, IV 96 mg/kg, 1 h, individual rats 4-6, 96 mg/kg): 5974 ng/mL and 6543 ng/mL and 5755 ng/mL | Plasma concentrations of PEG-Pirfenidone, Mean ([3]; SD Rat, IV 96 mg/kg, 2 h): 1533 ng/mL | Plasma concentrations of PEG-Pirfenidone ([3]; SD Rat, IV 96 mg/kg, 2 h, individual rats 4-6, 96 mg/kg): 1786 ng/mL and 2091 ng/mL and 721 ng/mL | Plasma concentrations of PEG-Pirfenidone, Mean ([3]; SD Rat, IV 96 mg/kg, 4 h): 183 ng/mL | Plasma concentrations of PEG-Pirfenidone ([3]; SD Rat, IV 96 mg/kg, 4 h, individual rats 4-6, 96 mg/kg): 216 ng/mL and 156 ng/mL and 178 ng/mL | Plasma concentrations of PEG-Pirfenidone, Mean ([3]; SD Rat, IV 96 mg/kg, 8 h): 20.3 ng/mL | Plasma concentrations of PEG-Pirfenidone ([3]; SD Rat, IV 96 mg/kg, 8 h, individual rats 4-6, 96 mg/kg): 12.9 ng/mL and 11.5 ng/mL and 36.3 ng/mL | Plasma concentrations of PEG-Pirfenidone, Mean ([3]; SD Rat, IV 96 mg/kg, 24 h): 2.97 ng/mL | Tmax ([3]; SD Rat, IV 96 mg/kg, individual rats 4-6): 4.98 min | MRTINF [3, 4]: 39 min and 37.6 min and 24.7 min | T1/2 [3, 4]: 48.2 min and 106 min and 85.8 min | Vss (/F) [3, 4]: 2.366 L/kg and 1.823 L/kg and 0.912 L/kg | AUC0-t, Mean ([3]; SD Rat, PO 96 mg/kg): 16811 ng·h/mL | AUC0-∞, Mean ([3]; SD Rat, PO 96 mg/kg): 16838 ng·h/mL | AUMC0-t, Mean ([3]; SD Rat, PO 96 mg/kg): 10264 h*h*ng/mL | AUMC0—∞, Mean ([3]; SD Rat, PO 96 mg/kg): 10527 h*h*ng/mL | Cmax, Mean ([3]; SD Rat, PO 96 mg/kg): 23584 ng/mL | MRTINF, Mean ([3]; SD Rat, PO 96 mg/kg): 37.6 min | T1/2, Mean ([3]; SD Rat, PO 96 mg/kg): 70.8 min | Tmax, Mean ([3]; SD Rat, PO 96 mg/kg): 15 min | F % ([3]; SD Rat, PO 96 mg/kg vs IV 96 mg/kg): 49.16% | Plasma concentrations of PEG-Pirfenidone, Mean ([3]; SD Rat, PO 96 mg/kg, 0.25 h): 23584 ng/mL | Plasma concentrations of PEG-Pirfenidone, Mean ([3]; SD Rat, PO 96 mg/kg, 0.5 h): 19224 ng/mL | Plasma concentrations of PEG-Pirfenidone, Mean ([3]; SD Rat, PO 96 mg/kg, 1 h): 3748 ng/mL | Plasma concentrations of PEG-Pirfenidone ([3]; SD Rat, PO 96 mg/kg, 1 h, individual rats 10-12, 96 mg/kg): 1157 ng/mL and 7033 ng/mL and 3053 ng/mL | Plasma concentrations of PEG-Pirfenidone, Mean ([3]; SD Rat, PO 96 mg/kg, 2 h): 440 ng/mL | Plasma concentrations of PEG-Pirfenidone, Mean ([3]; SD Rat, PO 96 mg/kg, 4 h): 69 ng/mL | Plasma concentrations of PEG-Pirfenidone ([3]; SD Rat, PO 96 mg/kg, 4 h, individual rats 10-12, 96 mg/kg): 28.4 ng/mL and 129 ng/mL and 48.8 ng/mL | Plasma concentrations of PEG-Pirfenidone, Mean ([3]; SD Rat, PO 96 mg/kg, 8 h): 14 ng/mL | Plasma concentrations of PEG-Pirfenidone ([3]; SD Rat, PO 96 mg/kg, 8 h, individual rats 10-12, 96 mg/kg): 3.09 ng/mL and 33.4 ng/mL and 6.16 ng/mL | Tmax ([3]; SD Rat, PO 96 mg/kg, individual rats 10-12): 15 min | MRTINF [3, 5]: 39.8 min and 38.9 min and 33.9 min | T1/2 [3, 5]: 60.6 min and 80.4 min and 71.4 min | half-life compared with Pirfenidone ([3]; rats, equimolar, after both IV and PO administration): longer half-life than Pirfenidone
Compound: COCCOCCOCCOCCOCCOCc1ccc(-n2cc(C)ccc2=O)cc1 [PEG-Pirfenidone]
relative potency to Pirfenidone and in vitro toxicity [1]: superior to the other tested variants | Plasma concentrations of PEG-Pirfenidone ([2]; IV 96 mg/kg, 0.083 h, individual rats 4-6): 44227 ng/mL and 56484 ng/mL and 96487 ng/mL | Plasma concentrations of PEG-Pirfenidone ([2]; IV 96 mg/kg, 0.5 h, individual rats 4-6): 13073 ng/mL and 18584 ng/mL and 19790 ng/mL | Plasma concentrations of PEG-Pirfenidone ([3]; SD Rat, IV 96 mg/kg, 0.25 h, individual rats 4-6, 96 mg/kg): 27605 ng/mL and 35059 ng/mL and 61343 ng/mL | Plasma concentrations of PEG-Pirfenidone ([3]; SD Rat, IV 96 mg/kg, 24 h, individual rats 4-6, 96 mg/kg): BLOQ (Below lower limit of quantification (1 ng/mL)) (2×) and 2.97 ng/ml | AUC0-t [3, 4]: 26338 ng·h/mL and 32960 ng·h/mL and 43292 ng·h/mL | AUC0-∞ [3, 4]: 26353 ng·h/mL and 32968 ng·h/mL and 43367 ng·h/mL | AUMC0-t [3, 4]: 16980 h*h*ng/mL and 20439 h*h*ng/mL and 17108 h*h*ng/mL | AUMC0—∞ [3, 4]: 17118 h*h*ng/mL and 20640 h*h*ng/mL and 17863 h*h*ng/mL | CL(/F) [3, 4]: 60.72 mL/min/kg and 48.53 mL/min/kg and 36.9 mL/min/kg | Cmax [3, 4]: 44227 ng/mL and 56484 ng/mL and 96487 ng/mL | Plasma concentrations of PEG-Pirfenidone ([3]; SD Rat, PO 96 mg/kg, 0.25 h, individual rats 10-12, 96 mg/kg): 8298 ng/mL and 40817 ng/mL and 21638 ng/mL | Plasma concentrations of PEG-Pirfenidone ([3]; SD Rat, PO 96 mg/kg, 0.5 h, individual rats 10-12, 96 mg/kg): 3977 ng/mL and 35217 ng/mL and 18477 ng/mL | Plasma concentrations of PEG-Pirfenidone ([3]; SD Rat, PO 96 mg/kg, 24 h, individual rats 10-12): BLOQ (Below lower limit of quantification (1 ng/mL)) | AUC0-t [3, 5]: 4853 ng·h/mL and 30468 ng·h/mL and 15112 ng·h/mL | AUC0-∞ [3, 5]: 4858 ng·h/mL and 30533 ng·h/mL and 15123 ng·h/mL | AUMC0-t [3, 5]: 3178 h*h*ng/mL and 19172 h*h*ng/mL and 8441 h*h*ng/mL | AUMC0—∞ [3, 5]: 3221 h*h*ng/mL and 19815 h*h*ng/mL and 8544 h*h*ng/mL | Cmax [3, 5]: 8298 ng/mL and 40817 ng/mL and 21638 ng/mL
